{"source": "patent US7071211B2", "about": "“Small organic molecules that increase the activity of gelatinase a in ocular cells” (Bausch & Lomb Inc., priority 2002, dated 2006)", "key": {"MT-MMP [1]": {"test_system": "MT-MMP", "experiment": "Thiopeptolide assay of cell-associated gelatinase activity ascribed to MT-MMP in TM cells", "type": "cell-based, Rhesus monkey", "details": "for Percent Activation Over control value: 48 hours incubation, OD 410 nm vs CACM control", "protocol": "Two days before molecule testing, the medium is replace by a defined, serum-free medium such as Minimum Essential Medium (MEM) containing defined supplements as described by Schachtschabel and Binninger, Z.f.Gerontol. […] Unless specifically noted, all molecules tested were prepared as stock solutions in dimethyl sulfoxide (DMSO) with a final concentration of 10 mg/ml. The stocks were stored in a dessicator at −20 degrees Celsius. In testing the molecules, the molecules were diluted to final concentrations of 0.3 ug/ml and 15 ug/ml in a simplified culture medium based on Ames' medium, called Concanavalin A (Con A) conditioning medium (CACM). The monkey TM cells were incubated with the test molecules for 48 hours. Control medium of CACM plus DMSO and a positive control with 5 ug/ml Con A plus DMSO were run in parallel. […] Next 100 uL of a doubly (2×) concentrated mixture of the thiopeptolide substrate (from a forty times (40×) concentrated DMSO stock, to give 1 mmol/L final concentration) freshly combined with the thiol reagent (5,5′dithiobis(2-nitrobenzoic acid (DTNB) from a twenty times (20×) concentrated DMSO stock to give 1 mmol/L) were added to each well and were incubated at 37 degrees Celsius for two hours with gentle agitation.\nAt the end of the incubation period, by means of a spectrophoto-metric plate reader, the optical density (OD) at 410 nm was determined for each well after automatic subtraction of a blank value for a well containing reaction mixture but without cells. The average OD at the two-hour end point for each test molecule at all concentrations in triplicate was calculated. This calculation was interpreted to be a measure of cell-associated MT-MMP level, equivalently defined as either its activity (a catalytic property of the enzyme) or expression (number of functional molecules). The percent difference in OD for each sample compared to the CACM control reflects the effectiveness of each test molecule or combination of molecules in eliciting increases in MT-MMP levels. As an alternate to the end point OD reading, one may use the mean rate of appearance of the reaction product (mean V), calculated from the best linear fit of the data to absorbance vs. time.\nTM cells were exposed to molecules and combinations of molecules by means of simultaneous addition, from separate stocks, to incubation medium."}, "MT-MMP [2]": {"test_system": "MT-MMP", "experiment": "Co-activation thiopeptolide assay (test compound with Con A or a second test compound) in TM cells", "type": "cell-based, Rhesus monkey", "excerpt": "Concanavalin A (Con A) binds to mannose groups on cell membrane gycoproteins. Because of its tetravalent nature, Con A binding leads to oligomerization of these “receptors,” possibly in the form of heterogeneous aggregates. Con A stimulation elicits increased expression of MT-MMP with concomitant ability to activate proGelA. The response, as measured by the magnitude of zymographic bands and by thiopeptolide assay, is dose-dependent. Thus the effects of co-activation using a submaximal dose of Con A plus treatment with a small molecule that may or may not be active by itself, are measured in the subject activation assay.\nFor the coactivation assays, following the preliminary steps set forth above preceding incubation with test compounds in Example 1, cells subsequently undergo one of the following protocols. • Protocol 1. Cells are incubated with a particular test compound for twenty-four hours. This incubation period is followed by a second twenty-four hour incubation period, in which the culture medium containing the first test compound is completely replaced by medium containing 5 ug/ml Con A. • Protocol 2. Cells are incubated with a particular first test compound for twenty-four hours, followed by a second forty-eight hour incubation in which the medium containing the first test compound is completely replaced by medium containing either Con A, as described above, or a second test compound. • Protocol 3. Cells are incubated with a combination of a test compound together with 5 ug/ml Con A for forty-eight hours.\nTwo controls, with or without 5 ug/ml Con A are run in parallel as described in Example 1. After incubation with these agents, cells are processed in equivalently to those in Example 1. Instead of comparison of the OD values with a CACM control, the results are compared with samples using Con A alone, or with a single test compound as described in Protocol 2 above, as set forth in Table 5 below."}, "MT1-MMP [3]": {"test_system": "MT1-MMP", "details": "human cervical fibroblasts; Ito et al. 1998; cited from earlier work"}, "MT1-MMP [4]": {"test_system": "MT1-MMP", "details": "Alexander and Acott 1999; cited from earlier work"}}}
{"compound": "COc1ccc(/C(C#N)=N/OC(=O)N2CCCCC2)cc1OC", "note": "[Molecule 1]", "values": [{"measurement": "Percent Activation Over control value", "setting": "MT-MMP [1]; Conc. 0.9 umol/L", "result": 48.1, "unit": "%"}, {"measurement": "Percent Activation Over control value", "setting": "MT-MMP [1]; Conc. 47.31 umol/L", "result": 260.4, "unit": "%"}]}
{"compound": "N#C/C(=N\\OC(=O)N1CCCCC1)c1c(F)cccc1F", "note": "[Molecule 2]", "values": [{"measurement": "Percent Activation Over control value", "setting": "MT-MMP [1]; Conc. 1.0 umol/L", "result": 33.8, "unit": "%"}, {"measurement": "Percent Activation Over control value", "setting": "MT-MMP [1]; Conc. 51.1.1 umol/L", "result": 420.5, "unit": "%"}]}
{"compound": "CC(C)N(CC(O)COc1cccc2ccccc12)C(N)=O", "note": "(stereo not shown) [Molecule 4]", "values": [{"measurement": "Percent Activation Over control value", "setting": "MT-MMP [1]; Conc. 1.0 umol/L", "result": 5.9, "unit": "%"}, {"measurement": "Percent Activation Over control value", "setting": "MT-MMP [1]; Conc. 49.6 umol/L", "result": 73.4, "unit": "%"}]}
{"compound": "CC(C)N(CCCOc1cccc2ccccc12)C(N)=O", "note": "[Molecule 6]", "values": [{"measurement": "Percent Activation Over control value", "setting": "MT-MMP [1]; Conc. 1.0 umol/L", "result": 2.2, "unit": "%"}, {"measurement": "Percent Activation Over control value", "setting": "MT-MMP [1]; Conc. 52.4 umol/L", "result": 207.9, "unit": "%"}, {"measurement": "Activity (% increase over Con A above, or as otherwise noted)", "setting": "MT-MMP [2]; Protocol 1 (24 h test compound, then 24 h 5 ug/ml Con A), Conc. 104.8 umol/L with Con A", "result": 183.9, "unit": "%"}, {"measurement": "Activity (% increase over Con A above, or as otherwise noted)", "setting": "MT-MMP [2]; Protocol 2 (24 h test compound, then 48 h Con A), Conc. 34.9 umol/L with Con A", "result": 49.0, "unit": "%"}, {"measurement": "Activity (% increase over Con A above, or as otherwise noted)", "setting": "MT-MMP [2]; Protocol 2 (24 h test compound, then 48 h Con A), Conc. 100.0 umol/L with Con A", "result": 70.9, "unit": "%"}]}
{"compound": "CNC(=O)N(CCOc1cccc(Cl)c1Cl)C(C)C", "note": "[Molecule 7]", "values": [{"measurement": "Percent Activation Over control value", "setting": "MT-MMP [1]; Conc. 1.0 umol/L", "result": "(−7.9) Percent"}, {"measurement": "Percent Activation Over control value", "setting": "MT-MMP [1]; Conc. 49.2 umol/L", "result": 274.0, "unit": "%"}, {"measurement": "Activity (% increase over Con A above, or as otherwise noted)", "setting": "MT-MMP [2]; Protocol 2 (24 h test compound, then 48 h Con A), Conc. 49.1 umol/L with Con A", "result": 59.8, "unit": "%"}]}
{"compound": "Cc1cccc(Cl)c1/C=N/NC(=N)N", "note": "[Molecule 8]", "values": [{"measurement": "Percent Activation Over control value", "setting": "MT-MMP [1]; Conc. 2.6 umol/L", "result": 2.9, "unit": "%"}, {"measurement": "Percent Activation Over control value", "setting": "MT-MMP [1]; Conc. 12.98 umol/L", "result": 12.7, "unit": "%"}, {"measurement": "Percent Activation Over control value", "setting": "MT-MMP [1]; Conc. 64.91 umol/L", "result": 54.3, "unit": "%"}, {"measurement": "Percent Activation Over control value", "setting": "MT-MMP [1]; Conc. 129.81 umol/L", "result": 106.8, "unit": "%"}]}
{"compound": "CC/C(=N\\NC(=N)N)c1ccccc1", "note": "[Molecule 9]", "values": [{"measurement": "Percent Activation Over control value", "setting": "MT-MMP [1]; Conc. 1.18 umol/L", "result": 21.4, "unit": "%"}, {"measurement": "Percent Activation Over control value", "setting": "MT-MMP [1]; Conc. 118.44 umol/L", "result": 82.4, "unit": "%"}]}
{"compound": "CSC(=N)N/N=C/c1c(Cl)cccc1Cl", "note": "[Molecule 11]", "values": [{"measurement": "Percent Activation Over control value", "setting": "MT-MMP [1]; Conc. 1.14 umol/L", "result": "(−20.9) Percent"}, {"measurement": "Percent Activation Over control value", "setting": "MT-MMP [1]; Conc. 57.22 umol/L", "result": 88.1, "unit": "%"}]}
{"compound": "N=C(N)NNC(O)c1c(Cl)cccc1Cl", "note": "(stereo not shown) [Molecule 12]", "values": [{"measurement": "Percent Activation Over control value", "setting": "MT-MMP [1]; Conc. 1.05 umol/L", "result": 3.2, "unit": "%"}, {"measurement": "Percent Activation Over control value", "setting": "MT-MMP [1]; Conc. 52.53 umol/L", "result": 101.6, "unit": "%"}]}
{"compound": "CC(C#N)c1ccc2c(c1)N(C)C1C=CC=CC1S2", "note": "(stereo not shown) [Molecule 13]", "values": [{"measurement": "Percent Activation Over control value", "setting": "MT-MMP [1]; Conc. 1.1 umol/L", "result": 74.6, "unit": "%"}, {"measurement": "Percent Activation Over control value", "setting": "MT-MMP [1]; Conc. 55.9 umol/L", "result": 68.5, "unit": "%"}, {"measurement": "Activity (% increase over Con A above, or as otherwise noted)", "setting": "MT-MMP [2]; Protocol 1 (24 h test compound, then 24 h 5 ug/ml Con A), Conc. 1.1 umol/L with Con A", "result": 18.1, "unit": "%"}, {"measurement": "Activity (% increase over Con A above, or as otherwise noted)", "setting": "MT-MMP [2]; Protocol 1 (24 h test compound, then 24 h 5 ug/ml Con A), Conc. 55.9 umol/L with Con A", "result": 109.5, "unit": "%"}]}
{"compound": "NC(=O)N1c2ccccc2C=Cc2ccccc21", "note": "[Molecule 14]", "values": [{"measurement": "Percent Activation Over control value", "setting": "MT-MMP [1]; Conc. 1.27 umol/L", "result": 7.7, "unit": "%"}, {"measurement": "Percent Activation Over control value", "setting": "MT-MMP [1]; Conc. 63.49 umol/L", "result": 115.6, "unit": "%"}]}
{"compound": "NCCCCCCNS(=O)(=O)c1cccc2c(Cl)cccc12", "note": "[Molecule W-7]", "values": [{"measurement": "MT1-MMP-induced activation of Gelatinase A (GelA)", "setting": "MT1-MMP [3]", "result": "not particularly pronounced"}]}
{"compound": "CCCCCCCCCCCCCC(=O)O[C@@H]1[C@@H](C)[C@@]2(O)[C@@H](C=C(CO)C[C@]3(O)C(=O)C(C)=C[C@@H]23)[C@@H]2C(C)(C)[C@]12OC(C)=O", "note": "[phorbol ester, phorbol 12-myristate 13-acetate]", "values": [{"measurement": "Expression of MT1-MMP", "setting": "MT1-MMP [4]", "result": "increased expression of MT1-MMP"}]}
{"compound": "CN1CCN(CCCN2c3ccccc3Sc3ccc(C(F)(F)F)cc32)CC1", "note": "[trifluoperazine]", "values": [{"measurement": "MT1-MMP-induced activation of Gelatinase A (GelA)", "setting": "MT1-MMP [3]", "result": "resulted in MT1-MMP-induced activation of Gelatinase A"}]}
{"compound": "Concanavalin A [Con A, reference compound]", "values": [{"measurement": "Increased expression of MT-MMP on Con A stimulation (response)", "setting": "MT-MMP [1]; measured by magnitude of zymographic bands and by thiopeptolide assay", "result": "dose-dependent"}]}
